Assays:
[1] = molecular target: T1, human JAK1 (a.a. 837-1142) (Homo sapiens, UniProt P23458); assay: In vitro JAK kinase assay (HTRF, phosphorylation of a biotinylated peptide), JAK1; format: biochemical; settings: Table D1; read-out: JAK1 IC50
T1 construct: human JAK1 (a.a. 837-1142); His tag (N); made in house; host or cells: insect cells (baculovirus)
Procedure: (§1) The catalytic activity of JAK1, JAK2 or JAK3 was assayed by measuring the phosphorylation of a biotinylated peptide. The phosphorylated peptide was detected by homogenous time resolved fluorescence (HTRF). […] The ATP concentration in the reactions was 90 μM for JAK1, 30 μM for JAK2 and 3 μM for JAK3. Reactions were carried out at room temperature for 1 hr and then stopped with 20 μL 45 mM EDTA, 300 nM SA-APC, 6 nM Eu-Py20 in assay buffer (Perkin Elmer, Boston, Mass.). Binding to the Europium labeled antibody took place for 40 minutes and HTRF signal was measured on a Fusion plate reader (Perkin Elmer, Boston, Mass.).
(§2) The catalytic activity of JAK1, JAK2 or JAK3 was assayed by measuring the phosphorylation of a biotinylated peptide. The phosphorylated peptide was detected by homogenous time resolved fluorescence (HTRF). […] Reactions were carried out at room temperature for 1 hr and then stopped with 20 μL 45 mM EDTA, 300 nM SA-APC, 6 nM Eu-Py20 in assay buffer (Perkin Elmer, Boston, Mass.). Binding to the Europium labeled antibody took place for 40 minutes and HTRF signal was measured on a Fusion plate reader (Perkin Elmer, Boston, Mass.).

[2] = molecular target: T2, human JAK2 (a.a. 828-1132) (Homo sapiens, UniProt O60674); assay: In vitro JAK kinase assay (HTRF, phosphorylation of a biotinylated peptide), JAK2; format: biochemical; settings: Table D1
T2 construct: JAK2 (a.a. 828-1132); His tag (N); made in house; host or cells: insect cells (baculovirus)
Procedure: as §1, §2

T1 sequence (P23458 849-1154): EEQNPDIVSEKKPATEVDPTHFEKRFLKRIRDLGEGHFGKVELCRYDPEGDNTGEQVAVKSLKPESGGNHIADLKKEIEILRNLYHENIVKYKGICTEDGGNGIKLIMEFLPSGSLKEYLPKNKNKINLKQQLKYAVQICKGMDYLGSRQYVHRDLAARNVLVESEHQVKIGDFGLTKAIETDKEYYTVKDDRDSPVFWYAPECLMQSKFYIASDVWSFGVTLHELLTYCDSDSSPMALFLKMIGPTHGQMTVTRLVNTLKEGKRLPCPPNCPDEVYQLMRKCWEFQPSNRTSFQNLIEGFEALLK
T2 sequence (O60674 828-1132): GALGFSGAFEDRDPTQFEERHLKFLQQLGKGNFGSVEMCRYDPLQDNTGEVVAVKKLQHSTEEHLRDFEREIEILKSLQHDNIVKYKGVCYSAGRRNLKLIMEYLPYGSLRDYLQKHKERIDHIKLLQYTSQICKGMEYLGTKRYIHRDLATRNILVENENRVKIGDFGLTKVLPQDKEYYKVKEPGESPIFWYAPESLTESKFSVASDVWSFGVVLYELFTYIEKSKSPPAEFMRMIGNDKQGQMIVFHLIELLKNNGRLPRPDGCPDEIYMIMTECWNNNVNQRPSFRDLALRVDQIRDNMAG

IC50 [1] [nM] | IC50 [2] [nM] | Compound
16 | 189 | Cc1cc(C(=O)N2CC[C@H](CC(=O)Nc3ccc4cc3CCc3cncc(c3)Nc3ncc(Cl)c(n3)N4)C2)no1 [Example D109, N-[6-Chloro-2,4,8,18,22-pentaazatetracyclo[14.3.1.1(3,7).1(9,13)]docosa-1(20),3(22),4,6,9(21),10,12,16,18-nonaen-12-yl]-2-{(3R)-1-[(5-methylisoxazol-3-yl)carbonyl]pyrrolidin-3-yl}acetamide bis(trifluoroacetate)]
22 | 222 | O=C(C[C@H]1CCN(C(=O)c2nccs2)C1)Nc1ccc2cc1CCc1cncc(c1)Nc1ncc(Cl)c(n1)N2 [Example D110, N-[6-Chloro-2,4,8,18,22-pentaazatetracyclo[14.3.1.1(3,7).1(9,13)]docosa-1(20),3(22),4,6,9(21),10,12,16,18-nonaen-12-yl]-2-[(3R)-1-(1,3-thiazol-2-ylcarbonyl)pyrrolidin-3-yl]acetamide bis(trifluoroacetate)]
61 | 689 | Cn1cncc1C(=O)N1CC[C@H](CC(=O)Nc2ccc3cc2CCc2cncc(c2)Nc2ncc(Cl)c(n2)N3)C1 [Example D111, N-[6-Chloro-2,4,8,18,22-pentaazatetracyclo[14.3.1.1(3,7).1(9,13)]docosa-1(20),3(22),4,6,9(21),10,12,16,18-nonaen-12-yl]-2-{(3R)-1-[(1-methyl-1H-imidazol-5-yl)carbonyl]pyrrolidin-3-yl}acetamide tris(trifluoroacetate)]
9.9 | 142 | CS(=O)(=O)N1CC[C@H](CC(=O)Nc2ccc3cc2CCc2cncc(c2)Nc2ncc(Cl)c(n2)N3)C1 [Example D112, N-[6-Chloro-2,4,8,18,22-pentaazatetracyclo[14.3.1.1(3,7).1(9,13)]docosa-1(20),3(22),4,6,9(21),10,12,16,18-nonaen-12-yl]-2-[(3R)-1-(methylsulfonyl)pyrrolidin-3-yl]acetamide bis(trifluoroacetate)]
11 | 161 | O=C(C[C@@H]1CCN(C(=O)Nc2ccccc2)C1)Nc1ccc2cc1CCc1cncc(c1)Nc1ncc(Cl)c(n1)N2 [Example D113, (3S)-3-(2-{[6-Chloro-2,4,8,18,22-pentaazatetracyclo[14.3.1.1(3,7).1(9,13)]docosa-1(20),3(22),4,6,9(21),10,12,16,18-nonaen-12-yl]amino}-2-oxoethyl)-N-phenylpyrrolidine-1-carboxamide bis(trifluoroacetate)]
9 | 83 | N#Cc1ccc(NC(=O)N2CC[C@@H](CC(=O)Nc3ccc4cc3CCc3cncc(c3)Nc3ncc(Cl)c(n3)N4)C2)cc1 [Example D114, (3S)-3-(2-{[6-Chloro-2,4,8,18,22-pentaazatetracyclo[14.3.1.1(3,7).1(9,13)]docosa-1(20),3(22),4,6,9(21),10,12,16,18-nonaen-12-yl]amino}-2-oxoethyl)-N-(4-cyanophenyl)pyrrolidine-1-carboxamide bis(trifluoroacetate)]
19 | 163 | N#Cc1cccc(NC(=O)N2CC[C@@H](CC(=O)Nc3ccc4cc3CCc3cncc(c3)Nc3ncc(Cl)c(n3)N4)C2)c1 [Example D115, (3S)-3-(2-{[6-Chloro-2,4,8,18,22-pentaazatetracyclo[14.3.1.1(3,7).1(9,13)]docosa-1(20),3(22),4,6,9(21),10,12,16,18-nonaen-12-yl]amino}-2-oxoethyl)-N-(3-cyanophenyl)pyrrolidine-1-carboxamide bis(trifluoroacetate)]
23 | 577 | N#Cc1ccccc1NC(=O)N1CC[C@@H](CC(=O)Nc2ccc3cc2CCc2cncc(c2)Nc2ncc(Cl)c(n2)N3)C1 [Example D116, (3S)-3-(2-{[6-Chloro-2,4,8,18,22-pentaazatetracyclo[14.3.1.1(3,7).1(9,13)]docosa-1(20),3(22),4,6,9(21),10,12,16,18-nonaen-12-yl]amino}-2-oxoethyl)-N-(2-cyanophenyl)pyrrolidine-1-carboxamide bis(trifluoroacetate)]
39 | 392 | O=C(C[C@@H]1CCN(C(=O)Nc2cccnc2)C1)Nc1ccc2cc1CCc1cncc(c1)Nc1ncc(Cl)c(n1)N2 [Example D117, (3S)-3-(2-{[6-Chloro-2,4,8,18,22-pentaazatetracyclo[14.3.1.1(3,7).1(9,13)]docosa-1(20),3(22),4,6,9(21),10,12,16,18-nonaen-12-yl]amino}-2-oxoethyl)-N-pyridin-3-ylpyrrolidine-1-carboxamide tris(trifluoroacetate)]
12 | 236 | O=C(C[C@@H]1CCN(C(=O)Nc2ccc(F)cc2)C1)Nc1ccc2cc1CCc1cncc(c1)Nc1ncc(Cl)c(n1)N2 [Example D118, (3S)-3-(2-{[6-Chloro-2,4,8,18,22-pentaazatetracyclo[14.3.1.1(3,7).1(9,13)]docosa-1(20),3(22),4,6,9(21),10,12,16,18-nonaen-12-yl]amino}-2-oxoethyl)-N-(4-fluorophenyl)pyrrolidine-1-carboxamide bis(trifluoroacetate)]
10 | 198 | O=C(C[C@@H]1CCN(C(=O)Nc2cccc(F)c2)C1)Nc1ccc2cc1CCc1cncc(c1)Nc1ncc(Cl)c(n1)N2 [Example D119, (3S)-3-(2-{[6-Chloro-2,4,8,18,22-pentaazatetracyclo[14.3.1.1(3,7).1(9,13)]docosa-1(20),3(22),4,6,9(21),10,12,16,18-nonaen-12-yl]amino}-2-oxoethyl)-N-(3-fluorophenyl)pyrrolidine-1-carboxamide bis(trifluoroacetate)]
20 | 397 | O=C(C[C@@H]1CCN(C(=O)c2ccno2)C1)Nc1ccc2cc1CCc1cncc(c1)Nc1ncc(Cl)c(n1)N2 [Example D120, N-[6-Chloro-2,4,8,18,22-pentaazatetracyclo[14.3.1.1(3,7).1(9,13)]docosa-1(20),3(22),4,6,9(21),10,12,16,18-nonaen-12-yl]-2-[(3S)-1-(isoxazol-5-ylcarbonyl)pyrrolidin-3-yl]acetamide bis(trifluoroacetate)]
75 | 550 | Cn1ccc(C(=O)N2CC[C@@H](CC(=O)Nc3ccc4cc3CCc3cncc(c3)Nc3ncc(Cl)c(n3)N4)C2)n1 [Example D121, N-[6-Chloro-2,4,8,18,22-pentaazatetracyclo[14.3.1.1(3,7).1(9,13)]docosa-1(20),3(22),4,6,9(21),10,12,16,18-nonaen-12-yl]-2-{(3S)-1-[(1-methyl-1H-pyrazol-3-yl)carbonyl]pyrrolidin-3-yl}acetamide bis(trifluoroacetate)]
43 | 500 | Cn1cc(C(=O)N2CC[C@@H](CC(=O)Nc3ccc4cc3CCc3cncc(c3)Nc3ncc(Cl)c(n3)N4)C2)cn1 [Example D122, N-[6-Chloro-2,4,8,18,22-pentaazatetracyclo[14.3.1.1(3,7).1(9,13)]docosa-1(20),3(22),4,6,9(21),10,12,16,18-nonaen-12-yl]-2-{(3S)-1-[(1-methyl-1H-pyrazol-4-yl)carbonyl]pyrrolidin-3-yl}acetamide bis(trifluoroacetate)]
